Test results taken from PubChem BioAssay (NCI).
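Compound exposure: 48 hours, 5 concentrations, 96-well plates. GI50 = concentration required for 50% inhibition of growth. TGI is the concentration that stops growth completely.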

Key:
Assay in all cases: growth of human tumour cells (NCI), 48 h; in the data active = GI50 below about 0.43 µM; inactive = the rest
[1] = tested on: NCI-H226 lung
[2] = tested on: NCI-H23 lung
[3] = tested on: NCI-H460 lung
[4] = tested on: NCI-H522 lung
[5] = tested on: NCI/ADR-RES ovarian
[6] = tested on: OVCAR-3 ovarian
[7] = tested on: OVCAR-4 ovarian
[8] = tested on: OVCAR-5 ovarian
[9] = tested on: OVCAR-8 ovarian
[10] = tested on: PC-3 prostate
[11] = tested on: RPMI-8226 leukemia
[12] = tested on: SF-268 CNS
[13] = tested on: SF-295 CNS
[14] = tested on: SF-539 CNS
[15] = tested on: SK-MEL-2 melanoma
[16] = tested on: SK-MEL-28 melanoma
[17] = tested on: SK-MEL-5 melanoma
[18] = tested on: SK-OV-3 ovarian
[19] = tested on: SN12C renal
[20] = tested on: SNB-19 CNS
[21] = tested on: SNB-75 CNS
[22] = tested on: SR leukemia
[23] = tested on: SW-620 colon
[24] = tested on: T-47D breast
[25] = tested on: TK-10 renal
[26] = tested on: U251 CNS
[27] = tested on: UACC-257 melanoma
[28] = tested on: UACC-62 melanoma
[29] = tested on: UO-31 renal

N#Cc1cnc(=O)n(C2CC(O)C(CO)O2)c1 (configuration not stated)
inactive: GI50 [2] > 100 µM | GI50 [3] > 100 µM | GI50 [4] > 100 µM | GI50 [5] > 100 µM | GI50 [6] > 100 µM | GI50 [7] > 100 µM | GI50 [8] > 100 µM | GI50 [9] > 100 µM | GI50 [10] > 100 µM | GI50 [11] > 100 µM | GI50 [12] > 100 µM | GI50 [13] > 100 µM | GI50 [14] > 100 µM | GI50 [15] > 100 µM | GI50 [16] > 100 µM | GI50 [17] > 100 µM | GI50 [18] > 100 µM | GI50 [19] > 100 µM | GI50 [20] > 100 µM | GI50 [21] 44.1 µM | GI50 [22] > 100 µM | GI50 [23] > 100 µM | GI50 [24] > 100 µM | GI50 [25] > 100 µM | GI50 [26] > 100 µM | GI50 [27] > 100 µM | GI50 [28] > 100 µM | GI50 [29] 51.6 µM
> 100 µM: TGI [1] | TGI [2] | TGI [3] | TGI [4] | TGI [5] | TGI [6] | TGI [7] | TGI [8] | TGI [9] | TGI [10] | TGI [11] | TGI [12] | TGI [13] | TGI [14] | TGI [15] | TGI [16] | TGI [17] | TGI [18] | TGI [19] | TGI [20] | TGI [21] | TGI [22] | TGI [23] | TGI [24] | TGI [25] | TGI [26] | TGI [27] | TGI [28] | TGI [29]
